Columns and labels:
[1] = system: psoriasis-induced xenotransplants (human skin grafted on beige-SCID mice, injected with PBMC's from psoriatic patients); experiment: Efficacy study in psoriasis-induced human skin xenotransplants on beige-SCID mice, histological evaluation; assay type: in vivo; settings: topical treatment for 14 days (Day 42-56), histology at Day 56
Text: The objective of this study was to determine the efficacy of Roflumilast as provided herein (at Examples 4 and 5) compared to the vehicle and Dexamethasone as shown at the Table 3. The evaluation was based on histology analysis following application of the respective test formulations.
The efficacy study has been conducted on female mice. The total duration of the experiment was 8 weeks, upon receiving of the human skin. Normal skin from healthy volunteers were obtained for grafting. Healthy human abdominal skin pieces with a width of 0.4 mm and surface area of 1.5×1.5 cm were provided. The skin sample was preserved in isotonic saline solution and transplanted within 6-12 hours after skin donation. In addition, blood samples were collected from psoriatic patients having classic plaque psoriasis and not undergoing any treatment. 20 mL blood samples were taken from both males and females psoriatic patients (from psoriatic patients having classic plaque psoriasis and not undergoing any treatment), and peripheral blood mononuclear cells (PBMC) were separated immediately after blood withdrawal.
Mice: Beige-severe combined immunodeficient mice C.B-17/IcrHsdscid-bg (beige-SCID) mice (weight ˜25 g) were included in this study. Mice were monitored twice a week for vital signs such as weight, food intake, coat, eyes, anal genital areas, discharge/soiling, behavior and criteria related to skin transplantation. Normal healthy human donor skin were transplanted onto the beige-SCID mice as previously described (See Keren A. et al., Novel nanosome delivery system combined with siRNA targeting the antimicrobial gene DFB4: a new approach for psoriasis management? Exp Dermatol. 2014; 23:464-465; Bracke S. et al., Targeted silencing of DEFB4 in a bioengineered skin-humanized mouse model for psoriasis: development of siRNA SECosome-based novel therapies. Exp Dermatol. 2014 ;23:199-201; Zaretsky M. et al., Directed evolution of a soluble human IL-17A receptor for the inhibition of psoriasis plaque formation in a mouse model. Chem Biol. 2013 21; 20:202-2; Gilhar A. et al., The beneficial effect of blocking Kv1.3 in the psoriasiform SCID mouse model. J Invest Dermatol. 2011;131:118 124; Keren A. et al., Innate lymphoid cells 3 induce psoriasis in xenotransplanted healthy human skin. J Allergy Clin Immunol. 2018;142:305-308.e6.).
British Journal of Pharmacology 2010; 159:842-855).
Four weeks following the engraftment, each mouse was injected (intradermally) with 1×10^7 IL-2 enriched allogeneic PBMC's from psoriatic patients (1×10^7 cells injected/mouse). Cells from different psoriasis patients were equally distributed between treatment groups. Each patient was represented in each treatment group.
Fourteen days following cells injections, the mice were divided into treatment groups (Table 4, see below) and treated according to the timeline indicated below (see Scheme 1). Each transplant was equally topically treated (50 μg) by using a sterile spatula.
Dexamethasone (D2915, Sigma): was freshly prepared for each administration by dilution in saline to final concentration (50 mg/ml). Dexamethasone serves as a positive control and was administered topically twice daily for 14 days following cells injections (at Day 42 following human skin transplantation) until the end of the study (Day 56).
The vehicle was administered topically (50 μg) once daily for 14 days as well.
On Day 56, the entire skin graft was excised and placed in 10% formaldehyde in saline overnight. Then, the specimens were placed in 70% ethanol and embedded and stained according to the standard Hematoxylin/Eosin protocol.
Skin graft histological assessment was performed (according to the psoriatic criteria including epidermal thickness) using light microscopy, and two observers blindly performed the evaluations. Epidermal thickness was determined using an ocular micrometer at a minimum of 50 points along the epidermis selected to represent points of maximal and minimal thickness. […]

[2] = according to the roflumilast DrugBank monograph; cited from earlier work
[3] = number of grafts/mice out of 10

| SMILES | Complete Recovery [1, 3] | Partial Recovery [1, 3] | Psoriatic Features [1, 3] | Complete Recovery (%) ([1]; percent of grafts/mice) | Partial Recovery (%) ([1]; percent of grafts/mice) | Psoriatic Features (%) ([1]; percent of grafts/mice) | calculated water solubility [2] [µg/mL] |
| --- | --- | --- | --- | --- | --- | --- | --- |
| C[C@@H]1C[C@H]2[C@@H]3CCC4=CC(=O)C=C[C@]4(C)[C@@]3(F)[C@@H](O)C[C@]2(C)[C@@]1(O)C(=O)CO [Dexamethasone] | 9/10 | 1/10 | 0/10 | (90%) | (10%) | (0%) | – |
| O=C(Nc1c(Cl)cncc1Cl)c1ccc(OC(F)F)c(OCC2CC2)c1 [Roflumilast, 3-(cyclopropylmethoxy)-n-(3,5-dichloropyridin-4-yl)-4-(difluoromethoxy)-benzamide] | – | – | – | – | – | – | 6.2 |

Reference: patent publication US20230310395A1, “TOPICAL ROFLUMILAST COMPOSITIONS AND USES THEREOF” (Sol-Gel Technologies Ltd., priority 2020, published 2023)
